Source: PubChem BioAssay AID328 (DTP/NCI, 2004)
“And” between values parts separate entries of the source, which are not always exact repeats. Identical values can stand only once. Inconclusive results and toxic doses are left out. Residues, ends and D or L forms follow the SMILES beside them.

Test system: BDF1 mice, P388 leukemia ip, median survival T/C
Test: NCI In Vivo Anticancer Drug Screen. Data for tumor model P388 Leukemia (intraperitoneal) in B6D2F1 (BDF1) mice
Conditions: endpoint: median survival time, higher = longer survival
Method in brief: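 Compound-treated tumour-bearing mice were compared with vehicle-treated controls. Survival was recorded, and the value is the treated-group measurement divided by the control-group measurement (T/C).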

[1] = dose: 25.0 mg/kg/injection, schedule: Q01DX009 (ip), vehicle: saline with Tween-80
[2] = dose: 50.0 mg/kg/injection, schedule: Q01DX009 (ip), vehicle: saline with Tween-80
[3] = dose: 100.0 mg/kg/injection, schedule: Q01DX009 (ip), vehicle: saline with Tween-80
[4] = dose: 6.25 mg/kg/injection, schedule: Q01DX009 (ip), vehicle: water
[5] = dose: 12.5 mg/kg/injection, schedule: Q01DX009 (ip), vehicle: water
[6] = dose: 200.0 mg/kg/injection, schedule: Q01DX009 (ip), vehicle: saline with Tween-80
[7] = dose: 400.0 mg/kg/injection, schedule: Q01DX009 (ip), vehicle: saline with Tween-80
[8] = dose: 12.5 mg/kg/injection, schedule: Q01DX009 (ip), vehicle: saline with Tween-80
[9] = dose: 100.0 mg/kg/injection, schedule: Q04DX003 (ip), vehicle: saline with Tween-80
[10] = dose: 200.0 mg/kg/injection, schedule: Q04DX003 (ip), vehicle: saline with Tween-80
[11] = dose: 400.0 mg/kg/injection, schedule: Q04DX003 (ip), vehicle: saline with Tween-80
[12] = dose: 50.0 mg/kg/injection, schedule: Q01DX009 (ip), vehicle: Klucel (hydroxypropylcellulose) (HPC)
[13] = dose: 50.0 mg/kg/injection, schedule: Q04DX003 (ip), vehicle: Klucel (hydroxypropylcellulose) (HPC)

## CCSc1ncnc2c1ncn2CN1CCOCC1
[1]
  T/C: 86 % of control
[2]
  T/C: 95 % of control
[3]
  T/C: 168 % of control
dose: 150.0 mg/kg/injection, schedule: Q01DX009 (ip), vehicle: saline
  T/C: 100 % of control
dose: 330.0 mg/kg/injection, schedule: Q01DX009 (ip), vehicle: saline
  T/C: 110 % of control

## NCCCCC(N)C(=O)NC(CCCN=C(N)N)C(=O)O (stereo not drawn) (H-Lys-Arg-OH; configuration not given here)
dose: 3.12 mg/kg/injection, schedule: Q01DX009 (ip), vehicle: water
  T/C: 101 % of control
[4]
  T/C: 97 % of control and 99 % of control and 117 % of control
[5]
  T/C: 105 % of control and 109 % of control
dose: 25.0 mg/kg/injection, schedule: Q01DX009 (ip), vehicle: water
  T/C: 101 % of control and 104 % of control and 118 % of control
dose: 50.0 mg/kg/injection, schedule: Q01DX009 (ip), vehicle: water
  T/C: 93 % of control and 94 % of control and 95 % of control
dose: 100.0 mg/kg/injection, schedule: Q01DX009 (ip), vehicle: water
  T/C: 90 % of control and 100 % of control and 113 % of control
dose: 200.0 mg/kg/injection, schedule: Q01DX009 (ip), vehicle: water
  T/C: 109 % of control

## COc1ccc(C(O)C2CCCN(C)S2(=O)=O)cc1 (centres undefined)
dose: 100.0 mg/kg/injection, schedule: Q04DX002 (ip), vehicle: saline with Tween-80
  T/C: 117 % of control
dose: 200.0 mg/kg/injection, schedule: Q04DX002 (ip), vehicle: saline with Tween-80
  T/C: 112 % of control
dose: 400.0 mg/kg/injection, schedule: Q04DX002 (ip), vehicle: saline with Tween-80
  T/C: 111 % of control

## Cc1ccc(Nc2c([N+](=O)[O-])c(=O)n(C)c(=O)n2C)cc1C
[2]
  T/C: 103 % of control
[3]
  T/C: 96 % of control
[6]
  T/C: 96 % of control

## CCN(CC)c1ccc(/C=C/c2ccnc3ccccc23)cc1
dose: 1.56 mg/kg/injection, schedule: Q01DX009 (ip), vehicle: saline with Tween-80
  T/C: 95 % of control
dose: 3.13 mg/kg/injection, schedule: Q01DX009 (ip), vehicle: saline with Tween-80
  T/C: 105 % of control
dose: 6.25 mg/kg/injection, schedule: Q01DX009 (ip), vehicle: saline with Tween-80
  T/C: 90 % of control

## CCOC(=O)/C=C(C)/C=C/C=C(C)/C=C/c1c(C)cc(OC)c(C)c1C
[2]
  T/C: 96 % of control
[3]
  T/C: 91 % of control
[6]
  T/C: 98 % of control

## CC(=O)Oc1c(Br)cc(Br)cc1-c1ccccc1
[2]
  T/C: 92 % of control
[3]
  T/C: 92 % of control
[6]
  T/C: 92 % of control
[7]
  T/C: 90 % of control

## COc1ccc(/C=C2\NC(=O)NC2=O)cc1O
[2]
  T/C: 106 % of control
[3]
  T/C: 101 % of control
[6]
  T/C: 105 % of control

## N#Cc1nc(C#N)c(Sc2ccccc2)c(Sc2ccccc2)c1Sc1ccccc1
[8]
  T/C: 101 % of control and 110 % of control
[1]
  T/C: 100 % of control and 103 % of control
[2]
  T/C: 121 % of control and 122 % of control

## O=c1cc(Cl)c(=O)[nH][nH]1
dose: 50.0 mg/kg/injection, schedule: Q01DX001 (ip), vehicle: saline
  T/C: 101 % of control
dose: 100.0 mg/kg/injection, schedule: Q01DX001 (ip), vehicle: saline
  T/C: 118 % of control
[9]
  T/C: 100 % of control
dose: 200.0 mg/kg/injection, schedule: Q01DX001 (ip), vehicle: saline
  T/C: 98 % of control
[10]
  T/C: 91 % of control
[11]
  T/C: 91 % of control

## NC(=O)N/N=C1/CCCC(C(=O)O)C1 (centres undefined)
dose: 50.0 mg/kg/injection, schedule: Q01DX001 (ip), vehicle: Klucel (hydroxypropylcellulose) (HPC)
  T/C: 91 % of control
dose: 100.0 mg/kg/injection, schedule: Q01DX001 (ip), vehicle: Klucel (hydroxypropylcellulose) (HPC)
  T/C: 116 % of control
dose: 200.0 mg/kg/injection, schedule: Q01DX001 (ip), vehicle: Klucel (hydroxypropylcellulose) (HPC)
  T/C: 91 % of control
dose: 400.0 mg/kg/injection, schedule: Q01DX001 (ip), vehicle: Klucel (hydroxypropylcellulose) (HPC)
  T/C: 95 % of control

## COC(=O)C12OCC34C(CC(C(C)=O)C(C)(CC(=O)O)C3C(O)C1O)OC(=O)C(OC(=O)/C=C(\C)C(C)C)C24 (centres undefined)
dose: 0.25 mg/kg/injection, schedule: Q01DX009 (ip), vehicle: saline
  T/C: 94 % of control
dose: 0.5 mg/kg/injection, schedule: Q01DX009 (ip), vehicle: saline
  T/C: 92 % of control
dose: 2.0 mg/kg/injection, schedule: Q01DX009 (ip), vehicle: saline
  T/C: 92 % of control
dose: 4.0 mg/kg/injection, schedule: Q01DX009 (ip), vehicle: saline
  T/C: 90 % of control

## OCC1OC(c2ccc(OCc3ccccc3)cc2OCc2ccccc2)C(O)C1O (centres undefined)
[2]
  T/C: 105 % of control
[3]
  T/C: 92 % of control
[6]
  T/C: 92 % of control

## c1cc[c]([Pb]([c]2ccccc2)([c]2ccccc2)[n]2cccc2)cc1
dose: 3.12 mg/kg/injection, schedule: Q01DX009 (ip), vehicle: saline
  T/C: 90 % of control
dose: 6.25 mg/kg/injection, schedule: Q01DX009 (ip), vehicle: saline
  T/C: 109 % of control
dose: 12.5 mg/kg/injection, schedule: Q01DX009 (ip), vehicle: saline
  T/C: 109 % of control
dose: 21.25 mg/kg/injection, schedule: Q04DX003 (ip), vehicle: Klucel (hydroxypropylcellulose) (HPC)
  T/C: 100 % of control
dose: 42.5 mg/kg/injection, schedule: Q04DX003 (ip), vehicle: Klucel (hydroxypropylcellulose) (HPC)
  T/C: 113 % of control

## N#CCCC(C#N)(CCC#N)c1ccc([N+](=O)[O-])cc1
[3]
  T/C: 92 % of control
[9]
  T/C: 101 % of control
[6]
  T/C: 92 % of control
[10]
  T/C: 100 % of control
[7]
  T/C: 92 % of control
[11]
  T/C: 102 % of control

## C=[CH][Sn][CH2]CCC
dose: 12.5 mg/kg/injection, schedule: Q01DX009 (ip), vehicle: Klucel (hydroxypropylcellulose) (HPC)
  T/C: 100 % of control
dose: 25.0 mg/kg/injection, schedule: Q01DX009 (ip), vehicle: Klucel (hydroxypropylcellulose) (HPC)
  T/C: 103 % of control
[12]
  T/C: 99 % of control

## O=C1NC(=O)C(c2ccc(C(F)(F)F)cc2)(c2ccc(C(F)(F)F)cc2)N1
[8]
  T/C: 104 % of control
[1]
  T/C: 90 % of control
[2]
  T/C: 113 % of control
[9]
  T/C: 90 % of control
[10]
  T/C: 90 % of control
[11]
  T/C: 104 % of control

## CC1(O)c2cccc3c2C2(O)c4c1cccc4C(C)(O)c1cccc(c12)C3(C)O (centres undefined)
[13]
  T/C: 100 % of control
dose: 100.0 mg/kg/injection, schedule: Q04DX003 (ip), vehicle: Klucel (hydroxypropylcellulose) (HPC)
  T/C: 105 % of control
dose: 200.0 mg/kg/injection, schedule: Q04DX003 (ip), vehicle: Klucel (hydroxypropylcellulose) (HPC)
  T/C: 105 % of control

## O=C1C(C(O)c2ccccc2)SC(c2ccccc2)N1c1ccccc1 (centres undefined)
dose: 12.5 mg/kg/injection, schedule: Q04DX003 (ip), vehicle: Klucel (hydroxypropylcellulose) (HPC)
  T/C: 96 % of control
dose: 25.0 mg/kg/injection, schedule: Q04DX003 (ip), vehicle: Klucel (hydroxypropylcellulose) (HPC)
  T/C: 96 % of control
[13]
  T/C: 96 % of control
dose: 400.0 mg/kg/injection, schedule: Q04DX003 (ip), vehicle: Klucel (hydroxypropylcellulose) (HPC)
  T/C: 90 % of control

## COc1cc(Nc2nc(Cl)ncc2[N+](=O)[O-])cc(OC)c1OC
dose: 100.0 mg/kg/injection, schedule: Q01DX001 (ip), vehicle: saline with Tween-80
  T/C: 104 % of control
dose: 200.0 mg/kg/injection, schedule: Q01DX001 (ip), vehicle: saline with Tween-80
  T/C: 100 % of control
dose: 400.0 mg/kg/injection, schedule: Q01DX001 (ip), vehicle: saline with Tween-80
  T/C: 100 % of control

## Cc1noc(-c2ccc([N+](=O)[O-])o2)n1
[12]
  T/C: 93 % of control
dose: 100.0 mg/kg/injection, schedule: Q01DX009 (ip), vehicle: Klucel (hydroxypropylcellulose) (HPC)
  T/C: 101 % of control

## O=S(=O)(O)O.O=S(=O)([O-])[O-].O=[N+]([O-])O.[Co+3].[Co+3].[NH2-].[NH2-].[NH2-].[NH2-].[NH2-].[NH2-].[NH2-].[NH2-].[NH2-]
[4]
  T/C: 97 % of control
[5]
  T/C: 124 % of control

## CCCCCCCCCC(=O)CCCCCCC
dose: 50.0 mg/kg/injection, schedule: Q01DX009 (ip), vehicle: other
  T/C: 100 % of control
dose: 100.0 mg/kg/injection, schedule: Q01DX009 (ip), vehicle: other
  T/C: 100 % of control
dose: 100.0 mg/kg/injection, schedule: Q04DX003 (ip), vehicle: other
  T/C: 100 % of control
dose: 118.0 mg/kg/injection, schedule: Q04DX003 (ip), vehicle: other
  T/C: 104 % of control
dose: 178.0 mg/kg/injection, schedule: Q04DX003 (ip), vehicle: other
  T/C: 109 % of control and 118 % of control
dose: 200.0 mg/kg/injection, schedule: Q01DX009 (ip), vehicle: other
  T/C: 104 % of control
dose: 266.0 mg/kg/injection, schedule: Q04DX003 (ip), vehicle: other
  T/C: 95 % of control
dose: 400.0 mg/kg/injection, schedule: Q01DX009 (ip), vehicle: other
  T/C: 95 % of control
dose: 400.0 mg/kg/injection, schedule: Q04DX003 (ip), vehicle: other
  T/C: 109 % of control and 118 % of control
